How the values were obtained:
PSMA on LNCaP cells = target: T1, PSMA on LNCaP cells (Homo sapiens, UniProt Q04609); details: cited from earlier work
T1 construct: host or cells: LNCaP

[1] = tested on: LNCaP xenograft tumor-bearing mice; assay: Biodistribution studies of 177Lu-labeled ligands in LNCaP xenograft mice; format: in vivo, mouse
Procedure: Inoculation of mice with xenografts: All animal studies were approved by the Institutional Animal Care and Use Committee of Weill Cornell Medicine and were undertaken in accordance with the guidelines set forth by the USPHS Policy on Humane Care and Use of Laboratory Animals. Animals were housed under standard conditions in approved facilities with 12 h light/dark cycles. Food and water was provided ad libitum throughout the course of the studies. Hairless male nu/nu mice were purchased from the Jackson Laboratory. For inoculation in mice, LNCaP cells were suspended at 4×10^7 cells/mL in a 1:1 mixture of PBS:Matrigel (BD Biosciences). Each mouse was injected in the left flank with 0.25 mL of the cell suspension. The mice were imaged when the tumors reached approximately 200-400 mm^3, while biodistributions were conducted when tumors were in the range 100-400 mm^3.
Biodistribution studies of 177Lu-labeled ligands in LNCaP xenograft mice: LNCaP xenograft tumor-bearing mice (5 per time point per compound) were injected intravenously with a bolus injection of 348-851 kBq (9.4-23 μCi) and 37-50 ng ([…]) of each ligand. The mice were sacrificed at 4, 24 and 96 h post injection. A blood sample was removed, and a full biodistribution study was conducted on the following organs (with contents): heart, lungs, liver, small intestine, large intestine, stomach, spleen, pancreas, kidneys, muscle, bone and tumor. Tissues were weighed and counted on a 2470 Wizard^2 Automatic Gamma Counter (Perkin Elmer). Counts were corrected for decay and for activity injected, and tissue uptake was expressed as percent injected dose per gram (% ID/g). Standard error measurement was calculated for each data point.

[2] = tested on: LNCaP xenograft tumor-bearing mice; assay: Dosimetry (dose integrals from time-activity curves of 177Lu-labeled ligands); format: in vivo, mouse; details: over 96 h
Procedure: Dosimetry: The dosimetry was calculated assuming a linear interpolation between the three time points. The average injected dose per organ was calculated by using the average of the activity and organ weights of the mice at that time point. Intermediate time points at every 4 hours were generated using the linear approximation and all time points were corrected for decay during the time interval between points. These curves were integrated using a trapezoidal approximation and the sum used to determine the residence time.

T1 sequence (Q04609 whole entry): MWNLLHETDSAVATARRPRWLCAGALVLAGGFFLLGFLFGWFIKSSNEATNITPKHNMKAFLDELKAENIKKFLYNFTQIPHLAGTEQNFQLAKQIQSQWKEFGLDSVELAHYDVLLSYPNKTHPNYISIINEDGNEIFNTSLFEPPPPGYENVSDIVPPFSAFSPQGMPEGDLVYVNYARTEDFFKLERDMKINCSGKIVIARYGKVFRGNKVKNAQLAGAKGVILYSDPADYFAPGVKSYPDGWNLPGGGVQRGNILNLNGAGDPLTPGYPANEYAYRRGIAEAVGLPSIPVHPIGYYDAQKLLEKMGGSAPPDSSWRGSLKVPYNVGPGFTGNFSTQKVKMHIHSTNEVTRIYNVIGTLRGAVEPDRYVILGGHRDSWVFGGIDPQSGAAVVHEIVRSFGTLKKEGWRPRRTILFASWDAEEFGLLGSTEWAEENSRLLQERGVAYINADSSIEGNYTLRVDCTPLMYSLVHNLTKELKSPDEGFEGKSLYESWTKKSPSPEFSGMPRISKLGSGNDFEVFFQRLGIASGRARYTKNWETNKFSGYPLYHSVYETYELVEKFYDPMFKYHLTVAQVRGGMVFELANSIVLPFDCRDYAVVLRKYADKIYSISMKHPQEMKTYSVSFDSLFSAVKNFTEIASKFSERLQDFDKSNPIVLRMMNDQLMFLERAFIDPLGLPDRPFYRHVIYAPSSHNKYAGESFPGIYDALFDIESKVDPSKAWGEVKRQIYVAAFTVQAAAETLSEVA

SMILES	Kd (PSMA on LNCaP cells)	blood activity (comparison within the series) ([1]; 4 h p.i.)	tumor uptake ([1]; 4 h p.i.)	kidney uptake ([1]; 24 h p.i.)	tumor uptake ([1]; 96 h p.i.)	tumor-to-kidney ratio ([1]; 96 h p.i.)	dose integral in the tumor relative to 177Lu-PSMA-617 [2]	tumor-to-kidney ratio ([1]; 24 h p.i.)
O=C(O)CC[C@H](NC(=O)N[C@@H](CCC(=O)N[C@@H](CCCCN(Cc1nccn1CC(=O)O)Cc1nccn1CC(=O)O)C(=O)O)C(=O)O)C(=O)O.[C-]#[O+].[C-]#[O+].[C-]#[O+].[Tc+] [99mTc-MIP-1427, ^99mTc-((7S,12S,16S)-1-(1-(carboxymethyl)-1H-imidazol-2-yl)-2-((1-(carboxymethyl)-1H-imidazol-2-yl)methyl)-9,14-dioxo-2,8,13,15-tetraazaoctadecane-7,12,16,18-tetracarboxylic acid technetiumtricarbonylcomplex)]	0.64 ± 0.46 nM	–	–	–	–	–	–	–
O=C([O-])CN1CCN(CC(=O)[O-])CCN(CC(=O)O)C(Cc2ccc(NC(=S)NCCCC[C@H](NC(=O)CCOCCOCCOCCn3cc(-c4cccc(NC(=O)NCCCC[C@H](NC(=O)N[C@@H](CCC(=O)O)C(=O)O)C(=O)O)c4)nn3)C(=O)N[C@@H](CCCCNC(=O)Cc3ccc(I)cc3)C(=O)O)cc2)CN(CC(=O)[O-])CC1.[177Lu+3] (stereo partly shown) [177Lu-RPS-063]	–	highest blood activity	30.0±3.1 % ID/g	51.8±8.6 % ID/g	12.9±0.5 % ID/g	2.75±0.17	nearly four times higher	–
O=C([O-])CN1CCN(CC(=O)[O-])CCN(CC(=O)O)C(Cc2ccc(NC(=S)NCCCC[C@H](NC(=O)CCOCCOCCOCCOCCn3cc(-c4cccc(NC(=O)NCCCC[C@H](NC(=O)N[C@@H](CCC(=O)O)C(=O)O)C(=O)O)c4)nn3)C(=O)N[C@@H](CCCCNC(=O)Cc3ccc(I)cc3)C(=O)O)cc2)CN(CC(=O)[O-])CC1.[177Lu+3] (stereo partly shown) [177Lu-RPS-061]	–	highest blood activity	–	–	–	3.64±0.29	at least two times higher	–
O=C([O-])CN1CCN(CC(=O)[O-])CCN(CC(=O)O)C(Cc2ccc(NC(=S)NCCCC[C@H](NC(=O)CCOCCOCCOCCOCCOCCOCCOCCOCCn3cc(-c4cccc(NC(=O)NCCCC[C@H](NC(=O)N[C@@H](CCC(=O)O)C(=O)O)C(=O)O)c4)nn3)C(=O)N[C@@H](CCCCNC(=O)Cc3ccc(I)cc3)C(=O)O)cc2)CN(CC(=O)[O-])CC1.[177Lu+3] (stereo partly shown) [177Lu-RPS-066]	–	lower blood retention	18.7±1.1 % ID/g	6.2±0.8 % ID/g	5.9±0.7 % ID/g	–	at least two times higher	1.92±0.30

— patent US12377175B2, “Trifunctional constructs with tunable pharmacokinetics useful in imaging and anti-tumor therapies” (Cornell University, priority 2016, dated 2025)
